Reference: ChEMBL document CHEMBL3885861, “Open TG-GATES”

Species: Rattus norvegicus
Test: Open TG-GATES - Regimen: Single
Format: toxicity, organism-based, Sprague-Dawley
Set-up: regimen Single, gender Male, age 6 weeks
Settings: in vivo, po, 0 mg/kg, route gavage, dose level Control; for APTT / Bas / Eos / Fbg / Hb / Ht / Lym / MCH / MCHC / MCV / Mono / Neu / PT / Plat / RBC / Ret / WBC: tissue Blood; for KIDNEY_L / KIDNEY_R / KIDNEY_TOTAL: tissue Kidney; for LIVER: tissue Liver; for A/G / ALP / ALT / AST / BUN / CRE / Ca / Cl / DBIL / GLC / IP / K / LDH / Na / PL / RALB / TBIL / TC / TG / TP / gamma-GTP: tissue Plasma

C[C@]12CCC(=O)C=C1CC[C@@H]1[C@@H]2CC[C@@]2(C)[C@H]1CC[C@]2(C)O [METHYLTESTOSTERONE]
TERMINAL_BW (3 h): 202.4 g | APTT (3 h): 15.7 s | Bas (3 h): 0% | Eos (3 h): 1% | Fbg (3 h): 277 mg/dL | Hb (3 h): 13.3 g/dL | Ht (3 h): 39% | Lym (3 h): 74.2% | MCH (3 h): 21.5 pg | MCHC (3 h): 34% | MCV (3 h): 63.3 fL | Mono (3 h): 3.6% | Neu (3 h): 20.6% | PT (3 h): 13.2 s | Plat (3 h): 111.8 x10_4/uL | RBC (3 h): 616.6 x10_4/ul | Ret (3 h): 8.5% | WBC (3 h): 71.2 x10_2/uL | KIDNEY_L (3 h): 0.9 g | KIDNEY_R (3 h): 0.9 g | KIDNEY_TOTAL (3 h): 1.8 g | LIVER (3 h): 8.7 g | A/G (3 h): 0.9 | ALP (3 h): 1644.6 IU/L | ALT (3 h): 45.4 IU/L | AST (3 h): 80.2 IU/L | BUN (3 h): 9.6 mg/dL | CRE (3 h): 0.2 mg/dL | Ca (3 h): 10.9 mg/dL | Cl (3 h): 105.6 meq/L | DBIL (3 h): 0.01 mg/dL | GLC (3 h): 182.8 mg/dL | IP (3 h): 9.8 mg/dL | K (3 h): 4.4 meq/L | LDH (3 h): 59.4 IU/L | Na (3 h): 142 meq/L | PL (3 h): 136.4 mg/dL | RALB (3 h): 2.6 g/dL | TBIL (3 h): 0.038 mg/dL | TC (3 h): 86.2 mg/dL | TG (3 h): 31.8 mg/dL | TP (3 h): 5.5 g/dL | gamma-GTP (3 h): 1.6 IU/L | TERMINAL_BW (6 h): 202.9 g | APTT (6 h): 17.1 s | Bas (6 h): 0% | Eos (6 h): 0.8% | Fbg (6 h): 299 mg/dL | Hb (6 h): 13.1 g/dL | Ht (6 h): 38.7% | Lym (6 h): 75.6% | MCH (6 h): 21.5 pg | MCHC (6 h): 34% | MCV (6 h): 63.4 fL | Mono (6 h): 3.6% | Neu (6 h): 19.4% | PT (6 h): 13.2 s | Plat (6 h): 112.5 x10_4/uL | RBC (6 h): 612 x10_4/ul | Ret (6 h): 8.2% | WBC (6 h): 68.1 x10_2/uL | KIDNEY_L (6 h): 0.9 g | KIDNEY_R (6 h): 0.9 g | KIDNEY_TOTAL (6 h): 1.7 g | LIVER (6 h): 8.5 g | A/G (6 h): 0.9 | ALP (6 h): 1516.2 IU/L | ALT (6 h): 41.8 IU/L | AST (6 h): 72.4 IU/L | BUN (6 h): 9 mg/dL | CRE (6 h): 0.2 mg/dL | Ca (6 h): 10.8 mg/dL | Cl (6 h): 108 meq/L | DBIL (6 h): 0.012 mg/dL | GLC (6 h): 185.4 mg/dL | IP (6 h): 10.1 mg/dL | K (6 h): 4.1 meq/L | LDH (6 h): 65.6 IU/L | Na (6 h): 142.2 meq/L | PL (6 h): 133.4 mg/dL | RALB (6 h): 2.6 g/dL | TBIL (6 h): 0.046 mg/dL | TC (6 h): 79.8 mg/dL | TG (6 h): 40.6 mg/dL | TP (6 h): 5.5 g/dL | gamma-GTP (6 h): 1.4 IU/L | TERMINAL_BW (9 h): 203.4 g | APTT (9 h): 16.8 s | Bas (9 h): 0% | Eos (9 h): 1% | Fbg (9 h): 285.6 mg/dL | Hb (9 h): 13.2 g/dL | Ht (9 h): 38.5% | Lym (9 h): 74.4% | MCH (9 h): 21.3 pg | MCHC (9 h): 34.2% | MCV (9 h): 62.4 fL | Mono (9 h): 3% | Neu (9 h): 21.2% | PT (9 h): 12.8 s | Plat (9 h): 108.1 x10_4/uL | RBC (9 h): 616.6 x10_4/ul | Ret (9 h): 8.5% | WBC (9 h): 59.4 x10_2/uL | KIDNEY_L (9 h): 0.9 g | KIDNEY_R (9 h): 0.9 g | KIDNEY_TOTAL (9 h): 1.8 g | LIVER (9 h): 7.9 g | A/G (9 h): 0.9 | ALP (9 h): 1387.4 IU/L | ALT (9 h): 42.2 IU/L | AST (9 h): 76.2 IU/L | BUN (9 h): 7.4 mg/dL | CRE (9 h): 0.2 mg/dL | Ca (9 h): 10.4 mg/dL | Cl (9 h): 105.2 meq/L | DBIL (9 h): 0.01 mg/dL | GLC (9 h): 171.4 mg/dL | IP (9 h): 10.6 mg/dL | K (9 h): 4.1 meq/L | LDH (9 h): 60.6 IU/L | Na (9 h): 141 meq/L | PL (9 h): 137.4 mg/dL | RALB (9 h): 2.5 g/dL | TBIL (9 h): 0.044 mg/dL | TC (9 h): 90.2 mg/dL | TG (9 h): 23 mg/dL | TP (9 h): 5.4 g/dL | gamma-GTP (9 h): 1.4 IU/L | TERMINAL_BW (24 h): 210.8 g | APTT (24 h): 17.4 s | Bas (24 h): 0% | Eos (24 h): 1% | Fbg (24 h): 275 mg/dL | Hb (24 h): 13.2 g/dL | Ht (24 h): 38.6% | Lym (24 h): 76% | MCH (24 h): 21.7 pg | MCHC (24 h): 34.2% | MCV (24 h): 63.6 fL | Mono (24 h): 2.8% | Neu (24 h): 19.6% | PT (24 h): 12.9 s | Plat (24 h): 111.5 x10_4/uL | RBC (24 h): 607.4 x10_4/ul | Ret (24 h): 8.1% | WBC (24 h): 74.8 x10_2/uL | KIDNEY_L (24 h): 0.9 g | KIDNEY_R (24 h): 0.9 g | KIDNEY_TOTAL (24 h): 1.9 g | LIVER (24 h): 9.8 g | A/G (24 h): 0.9 | ALP (24 h): 1818.4 IU/L | ALT (24 h): 48.4 IU/L | AST (24 h): 74.2 IU/L | BUN (24 h): 14.8 mg/dL | CRE (24 h): 0.2 mg/dL | Ca (24 h): 11.1 mg/dL | Cl (24 h): 106.2 meq/L | DBIL (24 h): 0.02 mg/dL | GLC (24 h): 194.2 mg/dL | IP (24 h): 8.1 mg/dL | K (24 h): 4.3 meq/L | LDH (24 h): 63.4 IU/L | Na (24 h): 140.8 meq/L | PL (24 h): 149.8 mg/dL | RALB (24 h): 2.7 g/dL | TBIL (24 h): 0.036 mg/dL | TC (24 h): 80.8 mg/dL | TG (24 h): 114.6 mg/dL | TP (24 h): 5.7 g/dL | gamma-GTP (24 h): 1.4 IU/L
